Each structure is given as a SMILES string. Values joined by “and” are separate entries in the source; they are usually repeats but may differ in a detail not shown here. Identical values can stand only once. Counter-ions that a name gives are not always drawn.

Test [1] concerns the target T1, wild type human RORγt ligand binding domain (RORyt LBD) (Homo sapiens, UniProt P51449).
T1 construct: His-tag (N); TurboTEV protease cleavage site (ENLYFQG) (N); made in house; host or cells: E. coli (pHIS1, modified pET vector)
T1 sequence (P51449 258-518): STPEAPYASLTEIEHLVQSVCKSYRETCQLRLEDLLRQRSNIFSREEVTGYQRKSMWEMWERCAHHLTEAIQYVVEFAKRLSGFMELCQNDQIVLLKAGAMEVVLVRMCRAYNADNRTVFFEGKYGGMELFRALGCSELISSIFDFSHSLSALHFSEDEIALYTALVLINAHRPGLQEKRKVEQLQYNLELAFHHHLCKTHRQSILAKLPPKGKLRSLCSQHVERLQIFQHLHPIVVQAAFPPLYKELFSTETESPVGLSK
Briefly: RORγt ThermoFluor assay (thermal shift, binding affinity KD).

The target in test [2] is T2, wild type human RORγt LBD (Homo sapiens, UniProt P51449).
T2 construct: expressed in transfected cells; host or cells: HEK293T
T2 sequence (P51449 258-518): T1 sequence (P51449 258-518)
In words: RORγt (LBD) Reporter Assay (GAL4-luciferase, HEK293T cells). Format: cell-based. Conditions: for IC50: HEK293T cells, value after the comma with ∼, > or < could not be included in the average; for inhibition at 6 µM: HEK-293T, read-out: RORγt (LBD) Reporter Assay, % inhibition @ 6 µM, 6 µM compound concentration; for RORγt (LBD) Reporter Assay, % inhibition @ 6 µM: 6 µM compound concentration.

As for `COc1nc2ccc(C(O)(c3ccc(C)nc3C)C3CN(C(C)=O)C3)cc2c(Cl)c1Cc1ccc(C(F)(F)F)cc1` (racemic) [Example 87a, 1-(3-((4-Chloro-2-methoxy-3-(4-(trifluoromethyl)benzyl)quinolin-6-yl)(2,6-dimethylpyridin-3-yl)(hydroxy)methyl)azetidin-1-yl)ethanone], the Kd (in general, the concentration at which binding is half-saturated) in test [1] was found to be 1.8 nM. In addition, in test [2], the IC50 (commonly the concentration needed to halve the response being measured) turned out to be 6.8 nM and the inhibition at 6 µM was 100%.
For the molecule `COc1nc2ccc(C(O)(c3ccc(C)nc3C)c3cncn3C)cc2c(Cl)c1Cc1ccc(C(F)(F)F)cc1` (racemic) [Example 88a, (4-Chloro-2-methoxy-3-(4-(trifluoromethyl)benzyl)quinolin-6-yl)(2,6-dimethylpyridin-3-yl)(1-methyl-1H-imidazol-5-yl)methanol], the Kd in test [1] was found to be 0.3 nM. For the same molecule, in test [2], the IC50 is 4.2 nM and ~20 nM; the inhibition at 6 µM stood at 98%.
For `COc1nc2ccc(C(O)(c3cncn3C)c3cnnn3C)cc2c(Cl)c1Cc1ccc(C(F)(F)F)cc1` (racemic) [Example 89a, (4-Chloro-2-methoxy-3-(4-(trifluoromethyl)benzyl)quinolin-6-yl)(1-methyl-1H-1,2,3-triazol-5-yl)(1-methyl-1H-imidazol-5-yl)methanol], the Kd in test [1] stood at 0.29 nM. In test [2], the IC50 is 4.8 nM and the inhibition at 6 µM is 98%.
For `COc1nc2ccc(C(O)(c3sc(C)nc3C)c3cnnn3C)cc2cc1Cc1ccc(C(F)(F)F)cc1` (racemic) [Example 92a, (2,4-Dimethylthiazol-5-yl)(2-methoxy-3-(4-(trifluoromethyl)benzyl)quinolin-6-yl)(1-methyl-1H-1,2,3-triazol-5-yl)methanol] the same measures were 92 nM, 79 nM and 101%.
As to `COc1c(Cc2ccccc2)c(C(F)(F)F)nc2ccc(C(O)(c3ccccn3)c3cncn3C)cc12` (racemic) [Example 98a, (3-Benzyl-4-methoxy-2-(trifluoromethyl)quinolin-6-yl)(1-methyl-1H-imidazol-5-yl)(pyridin-2-yl)methanol•TFA], the dissociation constant (Kd) in test [1] amounted to 590 nM. Besides, in test [2], the IC50 stood at 830 nM and the inhibition at 6 µM stood at 101%.
`Cn1cncc1C(O)(c1ccc2nc(C(F)(F)F)c(Cc3ccccc3)c(C#N)c2c1)c1ccccn1` (racemic) [Example 99a, 3-Benzyl-6-(hydroxy(1-methyl-1H-imidazol-5-yl)(pyridin-2-yl)methyl)-2-(trifluoromethyl)quinoline-4-carbonitrile•TFA]: the Kd in test [1] is 20 nM. In addition, in test [2], the IC50 came out at 97 nM and the inhibition at 6 µM came to 93%.
For `COc1nc2ccc(C(O)(c3cncn3C)C3CCOCC3)cc2c(Cl)c1Cc1ccc(-n2cccn2)cc1` (single isomer, unassigned) [Example 1b, (3-(4-(1H-Pyrazol-1-yl)benzyl)-4-chloro-2-methoxyquinolin-6-yl)(1-methyl-1H-imidazol-5-yl)(tetrahydro-2H-pyran-4-yl)methanol] the same measures were 43 nM, 100 nM and 99%.
In the case of `COc1nc2ccc(C(O)(c3cncn3C)C3CCOCC3)cc2c(Cl)c1Cc1ccc(-n2cccn2)cc1` (single isomer, unassigned) [Example 1c, (3-(4-(1H-Pyrazol-1-yl)benzyl)-4-chloro-2-methoxyquinolin-6-yl)(1-methyl-1H-imidazol-5-yl)(tetrahydro-2H-pyran-4-yl)methanol], the Kd in test [1] was 1.5 nM. Besides, in test [2], the “RORγt (LBD) Reporter Assay, % inhibition @ 6 µM” value (from here on “RORγt … % inhibition @ 6 µM”) was determined as 98% and inhibition was half-maximal at 22 nM (IC50).
In the case of `COc1nc2ccc(C(O)(c3ccc(C#N)cc3)c3cncn3C)cc2c(Cl)c1Cc1ccc(-n2cncn2)cc1` (single isomer, unassigned) [Example 14b, 4-((3-(4-(1H-1,2,4-Triazol-1-yl)benzyl)-4-chloro-2-methoxyquinolin-6-yl)(hydroxy)(1-methyl-1H-imidazol-5-yl)methyl)benzonitrile], in test [1], the Kd was determined as 140 nM. Besides, in test [2], it took 120 nM to reach half-maximal inhibition (IC50) and the inhibition at 6 µM is 105%.
Take `COc1nc2ccc(C(O)(c3ccc(C#N)cc3)c3cncn3C)cc2c(Cl)c1Cc1ccc(-n2cncn2)cc1` (single isomer, unassigned) [Example 14c, 4-((3-(4-(1H-1,2,4-Triazol-1-yl)benzyl)-4-chloro-2-methoxyquinolin-6-yl)(hydroxy)(1-methyl-1H-imidazol-5-yl)methyl)benzonitrile]: the Kd in test [1] was 5.5 nM. In test [2], the “RORγt … % inhibition @ 6 µM” value was found to be 106% and the IC50 was 24 nM.
For the molecule `COc1nc2ccc(C(O)(c3ccc(C#N)cc3)c3cncn3C)cc2c(C#N)c1Cc1ccc(-n2cncn2)cc1` (single isomer, unassigned) [Example 15b, 3-(4-(1H-1,2,4-Triazol-1-yl)benzyl)-6-((4-cyanophenyl)(hydroxy)(1-methyl-1H-imidazol-5-yl)methyl)-2-methoxyquinoline-4-carbonitrile], the Kd in test [1] came out at 140 nM. In addition, in test [2], the IC50 is 410 nM and the inhibition at 6 µM was determined as 99%.
Take `COc1nc2ccc(C(O)(c3ccc(C#N)cc3)c3cncn3C)cc2c(C#N)c1Cc1ccc(-n2cncn2)cc1` (single isomer, unassigned) [Example 15c, 3-(4-(1H-1,2,4-Triazol-1-yl)benzyl)-6-((4-cyanophenyl)(hydroxy)(1-methyl-1H-imidazol-5-yl)methyl)-2-methoxyquinoline-4-carbonitrile]: in test [1], the Kd came to 17 nM. In test [2], the “RORγt … % inhibition @ 6 µM” value stood at 97% and it took 28 nM to reach half-maximal inhibition (IC50).
In the case of `COc1nc2ccc(C(O)(c3ccc(C)nc3C)c3cnnn3C)cc2c(Cl)c1Cc1ccc(-n2cccn2)cc1` (single isomer, unassigned) [Example 17b, (3-(4-(1H-Pyrazol-1-yl)benzyl)-4-chloro-2-methoxyquinolin-6-yl)(2,6-dimethylpyridin-3-yl)(1-methyl-1H-1,2,3-triazol-5-yl)methanol], the Kd in test [1] stood at 200 nM. Also, in test [2], 660 nM corresponded to half-maximal inhibition (IC50) and the inhibition at 6 µM was 97%.
In the case of `COc1nc2ccc(C(O)(c3ccc(C)nc3C)c3cnnn3C)cc2c(Cl)c1Cc1ccc(-n2cccn2)cc1` (single isomer, unassigned) [Example 17c, (3-(4-(1H-Pyrazol-1-yl)benzyl)-4-chloro-2-methoxyquinolin-6-yl)(2,6-dimethylpyridin-3-yl)(1-methyl-1H-1,2,3-triazol-5-yl)methanol], the Kd in test [1] was determined as 0.29 nM. In test [2], the “RORγt … % inhibition @ 6 µM” value is given as 101% and the midpoint of inhibition, the IC50, lay at 9 nM.
Turning to `COc1nc2ccc(C(O)(c3ccccc3)C3CCN(C(C)=O)CC3)cc2c(Cl)c1Cc1ccc(-n2cncn2)cc1` (single isomer, unassigned) [Example 18b, 1-(4-((3-(4-(1H-1,2,4-Triazol-1-yl)benzyl)-4-chloro-2-methoxyquinolin-6-yl)(hydroxy)(phenyl)methyl)piperidin-1-yl)ethanone], the Kd in test [1] turned out to be 8 nM. Moreover, in test [2], the IC50 came to 83 nM and the inhibition at 6 µM was 99%.
With `COc1nc2ccc(C(O)(c3ccccc3)C3CCN(C(C)=O)CC3)cc2c(Cl)c1Cc1ccc(-n2cncn2)cc1` (single isomer, unassigned) [Example 18c, 1-(4-((3-(4-(1H-1,2,4-Triazol-1-yl)benzyl)-4-chloro-2-methoxyquinolin-6-yl)(hydroxy)(phenyl)methyl)piperidin-1-yl)ethanone], the Kd in test [1] came to 50 nM. Moreover, in test [2], the “RORγt … % inhibition @ 6 µM” value came to 91% and 88 nM corresponded to half-maximal inhibition (IC50).
`COc1nc2ccc(C(O)(c3ccc(C)nc3C)c3cnnn3C)cc2c(Cl)c1Cc1ccc(C)cc1` (single isomer, unassigned) [Example 20b, (4-Chloro-2-methoxy-3-(4-methylbenzyl)quinolin-6-yl)(2,6-dimethylpyridin-3-yl)(1-methyl-1H-1,2,3-triazol-5-yl)methanol]: in test [1], the Kd came out at 390 nM. Besides, in test [2], the IC50 was 1400 nM and the inhibition at 6 µM was determined as 84%.
As to `COc1nc2ccc(C(O)(c3ccc(C)nc3C)c3cnnn3C)cc2c(Cl)c1Cc1ccc(C)cc1` (single isomer, unassigned) [Example 20c, (4-Chloro-2-methoxy-3-(4-methylbenzyl)quinolin-6-yl)(2,6-dimethylpyridin-3-yl)(1-methyl-1H-1,2,3-triazol-5-yl)methanol], the equilibrium dissociation constant (Kd) in test [1] turned out to be 0.62 nM. In test [2], the “RORγt … % inhibition @ 6 µM” value stood at 93%; the IC50 is 57 nM and ~30 nM.
On to `COc1nc2ccc(C(O)(c3sc(C)nc3C)c3cnnn3C)cc2c(Cl)c1Cc1ccc(-n2cccn2)cc1` (single isomer, unassigned) [Example 21b, (3-(4-(1H-Pyrazol-1-yl)benzyl)-4-chloro-2-methoxyquinolin-6-yl)(2,4-dimethylthiazol-5-yl)(1-methyl-1H-1,2,3-triazol-5-yl)methanol], for which the Kd in test [1] stood at 22 nM. In test [2], half-maximal inhibition (IC50) required 130 nM and the inhibition at 6 µM turned out to be 99%.
Turning to `COc1nc2ccc(C(O)(c3sc(C)nc3C)c3cnnn3C)cc2c(Cl)c1Cc1ccc(-n2cccn2)cc1` (single isomer, unassigned) [Example 21c, (3-(4-(1H-Pyrazol-1-yl)benzyl)-4-chloro-2-methoxyquinolin-6-yl)(2,4-dimethylthiazol-5-yl)(1-methyl-1H-1,2,3-triazol-5-yl)methanol], in test [1], the Kd was determined as 0.08 nM. For the same molecule, in test [2], the “RORγt … % inhibition @ 6 µM” value was determined as 98% and half-maximal inhibition (IC50) required 8.7 nM.

These data come from patent EP3057951B1, “METHYLENE LINKED QUINOLINYL MODULATORS OF ROR-GAMMA-T” (Janssen Pharmaceutica NV, priority 2013, dated 2015).
